Measured values published in patent US7524849B2, “5-arylpyrimidines as anticancer agents” (Wyeth Holdings Corporation, priority 2003, dated 2009).

Columns and labels:
COLO 205 cells = experiment: MTS cytotoxicity test with COLO 205 cells; assay type: cell-based, human; details: three days with compound
Method: (§1) The assay, which is sold in kit form by Promega (Madison, Wis.; CellTiter 96 AQueous Non-Radioactive Cell Proliferation Assay), is based on the conversion by viable cells, but not by dead cells, of the tetrazolium salt, MTS (3-(4,5-dimethylthiazol-2-yl)-5-(3-carboxymethoxyphenyl)-2-(4-sulphophenyl)-2H-tetrazolium, inner salt), into a water-soluble colored formazan which is detected by spectrophotometry. Compounds are tested at nine concentrations, in order to determine IC50 values. For the test procedure, cells are harvested by trypsinization, washed, counted and distributed to wells of 96-well flat-bottom microtiter plates at 1000 cells per well in 200 μL of medium. In addition, one row of wells on a separate plate receives cells as above (“time 0” plate). All plates are incubated at 37° in humidified 5% CO2 in air for about 24 hr.
On day 2, compounds for test are diluted and added to wells. Compounds are dissolved in DMSO at 10 mg/mL. For each compound, nine serial 2-fold dilutions are prepared in DMSO. Ten μL of each dilution in DMSO are transferred to 100 μL of medium, mixed well, and then 5 μL of this dilution are transferred in quadruplicate to wells containing cells. The final high concentration of each compound is typically 5 μM. Plates are returned to the incubator for three days. At the time of drug addition to the experimental plates, the MTS assay is run on the “time 0” plate. This produces the “time 0 MTS value” which is related to the number of viable cells per well at the time of drug addition.
After three days of culture with test compounds (day 5 overall), the MTS assay is done on all wells of the experimental plates. The absorbance values of the quadruplicate sample wells are averaged and divided by the average of the “time 0” values. The average of control wells without drug, divided by the average “time 0” value, gives the maximal relative increase in MTS color yield due to cell growth during the final three days of culture. The average of control wells with high drug concentration, divided by the “time 0” value, gives the minimal relative color yield for cells that were completely killed. The nine values for each compound are plotted against concentration, and the concentration that produces a relative color yield half way between the maximum and minimum is taken as the IC50 value.
COLO 205 is a human colon carcinoma cell line that is used for comparative testing of the examples of this invention and several reference compounds. This line is sensitive to paclitaxel and vincristine.

KB cells = experiment: MTS cytotoxicity test with KB cells; assay type: cell-based, human; details: mean of 2 experiments
From the text: (§2) Human cancer cell lines, unless otherwise noted, are obtained from the American Type Culture Collection (Rockville, Md.). The following drug-sensitive parental cell lines, and their derived drug-resistant counterparts, are obtained from the originators as listed: (a) S1 (parental line from a subclone of human colon carcinoma line LS174T) and derived S1-M1-3.2 (herein called S1-M1) which expresses the MXR drug transporter protein, are provided by Dr. L. Greenberger, Wyeth Research (Rabindran, S. K., He, H., Singh, M., Brown, E., Collins, K. I., Annable, T., and Greenberger, L. M. Reversal of a novel multidrug resistance mechanism in human colon carcinoma cells by fumitremorgin C. Cancer Res., 58: 5850-5858, 1998); (b) parental HL-60 human promyelocytic leukemia line and derived HL-60/ADR, which expresses the MRP1 drug transporter protein, are provided by Dr. M. Center, University of Kansas (McGrath, T., and Center, M. S. Adriamycin resistance in HL60 cells in the absence of detectable P-glycoprotein. Biochem. Biophys. […] J. Biol. Chem., 261: 7762-7770, 1986) via Dr. L. Greenberger, Wyeth Research.
as §1
(§3) On day 2, compounds for test are diluted and added to wells. Compounds are dissolved in DMSO at 10 mg/mL. For each compound, nine serial 2-fold dilutions are prepared in DMSO. Ten μL of each dilution in DMSO are transferred to 100 μL of medium, mixed well, and then 5 μL of this dilution are transferred in quadruplicate to wells containing cells. […] Plates are returned to the incubator for three days. At the time of drug addition to the experimental plates, the MTS assay is run on the “time 0” plate. This produces the “time 0 MTS value” which is related to the number of viable cells per well at the time of drug addition.
(§4) After three days of culture with test compounds (day 5 overall), the MTS assay is done on all wells of the experimental plates. The absorbance values of the quadruplicate sample wells are averaged and divided by the average of the “time 0” values. […] The nine values for each compound are plotted against concentration, and the concentration that produces a relative color yield half way between the maximum and minimum is taken as the IC50 value.

KB-8-5 cells = experiment: MTS cytotoxicity test with KB-8-5 cells (moderate P-glycoprotein); assay type: cell-based, human; details: KB 8.5 cells, mean of 2 experiments
From the text: as §2, §1, §3, §4

KB-V1 cells = experiment: MTS cytotoxicity test with KB-V1 cells (very high P-glycoprotein); assay type: cell-based, human; details: for IC50: KB VI cells, mean of 2 experiments
From the text: as §2, §1, §3, §4

HL-60 cells = experiment: MTS cytotoxicity test with HL-60 cells; assay type: cell-based, human; details: mean of 2 experiments
From the text: as §2, §1, §3, §4
(§5) HL-60/ADR cells overexpress the multidrug resistance protein MRP1 which mediates resistance to some chemotherapeutics (Gottesman, M. M., Fojo, T., and Bates, S. E. Multidrug resistance in cancer: role of ATP-dependent transporters. Nature Rev. Cancer, 2: 48-58, 2002). The IC50 values of representative examples of this invention, as well as reference compounds, on HL-60/ADR are compared to values on the sensitive parental HL-60 line.

HL-60/ADR cells = experiment: MTS cytotoxicity test with HL-60/ADR cells (MRP1); assay type: cell-based, human; details: for IC50: HL-60/ADR cells, mean of 2 experiments; for Ratio: IC50 on HL-60/ADR cells/IC50 on HL-60 cells
From the text: as §2, §1, §3, §4, §5

S1 cells = experiment: MTS cytotoxicity test with S1 cells; assay type: cell-based, human; details: mean of 2 experiments
From the text: as §2, §1, §3, §4
as §5, with “S1-M1” for “HL-60/ADR”, “MXR transporter” for “multidrug resistance protein MRP1”, “Miltidrug” for “Multidrug”, “S1” for “HL-60”

S1-M1 cells = experiment: MTS cytotoxicity test with S1-M1 cells (MXR); assay type: cell-based, human; details: for IC50: S1-M1 cells, mean of 2 experiments; for Ratio: IC50 on S1-M1 cells/IC50 on S1 cells
From the text: as §2, §1, §3, §4
as §5, with “S1-M1” for “HL-60/ADR”, “MXR transporter” for “multidrug resistance protein MRP1”, “Miltidrug” for “Multidrug”, “S1” for “HL-60”

[1] = system: highly purified tubulin (tubulin heterodimer); experiment: Competitive binding test, [3H]vinblastine; design: species or system bovine; details: competitor 100 μM, [3H]vinblastine 100 nM, percent of binding to control without competitor
Method: (§6) Medium is RPMI-1640 with L-glutamine, supplemented with 10% heat-inactivated fetal calf serum, 100 units/mL penicillin, and 100 μg/mL streptomycin (Gibco, Grand Island, N.Y.). Microtubule-associated protein (MAP)-rich tubulin, containing about 70% tubulin and 30% MAPs (#ML113), and highly purified tubulin (>99% pure, #TL238), both from bovine brain, are obtained from Cytoskeleton, Inc., Denver, Colo. PEM buffer (80 mM piperazine-N,N′-bis[2-ethanesulfonic acid], pH 6.9, 1 mM ethylene glycol-bis(β-aminoethyl ether)-N,N,N′,N′-tetraacetic acid, 1 mM magnesium chloride) and guanosine 5′-triphosphate (GTP) are also obtained from Cytoskeleton. […] [^3H]vinblastine, specific activity 9.60 Ci/mmol and MicroSpin G-50 columns are obtained from Amersham Biosciences (Piscataway, N.J.). […] Other reagents are obtained from Sigma (St. Louis, Mo.).
(§7) The binding of examples of this invention to highly purified tubulin is studied by competitive inhibition methods.
(§8) These solutions are incubated at 24° for 1 hr and then applied to MicroSpin G-50 columns which are centrifuged for 2 min at 3000 rpm in an Eppendorf 5415C microfuge. An aliquot of each column effluent (containing tubulin and bound radioligand) is mixed with scintillation fluid and counted in a liquid scintillation spectrometer. […] Quadruplicates are averaged, and the ability of the competitor to inhibit the binding of the radioligand is expressed as a percentage of control binding in the absence of any competitor.

[2] = system: highly purified tubulin (tubulin heterodimer); experiment: Competitive binding test, [3H]colchicine; design: species or system bovine; details: competitor 100 μM, [3H]colchicine 50 nM, percent of binding to control without competitor
Method: as §6, §7, §8

MAP-rich tubulin = experiment: Tubulin polymerization test with MAP-rich tubulin; assay type: biochemical, bovine; details: 0.3 μM compound, mean A340 at 20 min, fold enhancement over control
Method: as §6
MAP-rich tubulin is dissolved in ice-cold PEM buffer containing 1 mM GTP (GPEM buffer) at a concentration of 1.3 mg/mL. The solution is centrifuged at top speed in an Eppendorf model 5415C microcentrifuge (Brinkmann Instruments, Westbury, N.Y.) for 10 min at 4° immediately before use. The tubulin solution is added to wells of a ½-area 96-well plate (Costar No. 3696, Corning, Inc., Corning, N.Y.) already containing the compounds of interest. Each compound is tested in duplicate at a final concentration of 0.3 μM in a volume of 110 μL per well. The final DMSO concentration in all wells is 0.3%. Control reactions, which receive compound solvent only, are done in quadruplicate. The plate is put in a SpectraMax Plus plate reader (Molecular Devices Corp. Sunnyvale, Calif.) thermostated at 24° and the absorbance of each well at 340 nm, a measure of the appearance of turbidity due to tubulin polymer formation, is determined every minute for 60 minutes. The absorbance at time 0 for each well is subtracted from each of the subsequent absorbance readings for that well, and then the duplicates are averaged.

Work on CN(C)CCCOc1cc(F)c(-c2c(Cl)nc(-n3ccnc3)nc2NCC(F)(F)F)c(F)c1 [Example 31, 6-Chloro-5-{4-[3-(dimethylamino)propoxy]-2,6-difluorophenyl}-2-(1H-imidazol-1-yl)-N-(2,2,2-trifluoroethyl)pyrimidin-4-amine] yielded an IC50 (COLO 205 cells; Homo sapiens, 72 h) of 682 nM and a melting point of 47 to 49 °C.
For CN(C)CCCOc1cc(F)c(-c2c(Cl)nc(N(C)C#N)nc2NCC(F)(F)F)c(F)c1 [Example 19, 4-Chloro-5-{4-[3-(dimethylamino)propoxy]-2,6-difluorophenyl}-6-[(2,2,2-trifluoroethyl)amino]pyrimidin-2-yl(methyl)cyanamide], the IC50 (COLO 205 cells; Homo sapiens, 72 h) was 52 nM, the IC50 (KB cells; Homo sapiens) was 63 nM and the IC50 (KB-8-5 cells; Homo sapiens) was 69 nM. It also gave an IC50 (KB-V1 cells; Homo sapiens, KB-V1) of 176 nM, an IC50 (HL-60 cells; Homo sapiens) of 66 nM and an IC50 (HL-60/ADR cells; Homo sapiens, HL60/ADR) of 60 nM. The Ratio (HL-60/ADR cells) was 0.9, the IC50 (S1 cells; Homo sapiens) was 88 nM and the IC50 (S1-M1 cells; Homo sapiens) was 88 nM. For the same compound, the Ratio (S1-M1 cells) was 1.0, the “[3H]Vinblastine binding, Mean” value [1] was 22 % of control and the “[3H]Colchicine binding, Mean” value [2] was 116 % of control.
For CC(=O)O[C@@]12CO[C@@H]1C[C@H](O)[C@@]1(C)C(=O)[C@H](O)C3=C(C)[C@@H](OC(=O)[C@H](O)[C@@H](NC(=O)OC(C)(C)C)c4ccccc4)C[C@@](O)([C@@H](OC(=O)c4ccccc4)[C@H]21)C3(C)C [Docetaxel, reference compound], the “A340 Compound / A340 Control” value (MAP-rich tubulin) was 8.6.
With CNCCCOc1cc(F)c(-c2c(Cl)nc(-c3cnccn3)nc2C2CCCCCC2)c(F)c1.O=C(O)C(F)(F)F [Example 33a, N-{3-[4-(4-Chloro-6-cycloheptyl-2-pyrazin-2-ylpyrimidin-5-yl)-3,5-difluorophenoxy]propyl}-N-methylamine trifluoroacetic acide salt] the IC50 (COLO 205 cells) was 8.2 nM, the IC50 (KB cells) was 6.8 nM and the IC50 (KB-8-5 cells) was 7.5 nM. For the same compound, the “Ratio VI/KB” value (KB-V1 cells; IC50 on KB VI cells/IC50 on KB cells) was 13, the IC50 (KB-V1 cells) was 91 nM and the “recognition by P-glycoprotein” value (KB-V1 cells; inferred from change in IC50 KB-V1 vs KB) was “show recognition by P-glycoprotein, but much less than that shown by paclitaxel and vincristine”. It also gave an IC50 (HL-60 cells) of 6.9 nM, an IC50 (HL-60/ADR cells) of 6.1 nM and a Ratio (HL-60/ADR cells) of 0.9. For the same compound, the IC50 (S1 cells) was 8.5 nM, the Ratio (S1-M1 cells) was 1.4 and the IC50 (S1-M1 cells) was 12 nM. The “A340 Compound / A340 Control” value (MAP-rich tubulin) was 0.5.
With CN(C#N)c1nc(Cl)c(-c2c(F)cc(F)cc2F)c(NCC(F)(F)F)n1 [Example 1, 4-Chloro-6-[(2,2,2-trifluoroethyl)amino]-5-(2,4,6-trifluorophenyl)pyrimidin-2-yl(methyl)cyanamide] the IC50 (COLO 205 cells; Homo sapiens, 72 h) was 214 nM, the “[3H]Vinblastine binding, Mean” value [1] was 30 % of control and the “[3H]Colchicine binding, Mean” value [2] was 47 % of control.
For Fc1cc(F)c(-c2c(Cl)nc(-n3ccnc3)nc2NCC(F)(F)F)c(F)c1 [Example 15, 6-Chloro-2-(1H-imidazol-1-yl)-N-(2,2,2-trifluoroethyl)-5-(2,4,6-trifluorophenyl)pyrimidin-4-amine], the IC50 (COLO 205 cells; Homo sapiens, 72 h) was 3030 nM and the melting point was 168 to 170 °C.
